{"source": "patent US7235263B2", "about": "“Processes for controlling microbial organic compound production” (Kimberly-Clark Worldwide, Inc., priority 2001, dated 2007)", "type_in_all_cases": "cell-based", "key": {"Proteus mirabilis": {"system": "Proteus mirabilis", "test": "Growth of aerobically cultivated Proteus mirabilis in urine:TSB, microtiter serial dilution, optical density", "conditions": "for optical density (bacterial cell growth): 48 hours at 37° C., aerobic", "method": "Proteus mirabilis was cultured in TSB as described in Example 1 and transferred to a urine:TSB mixture (9:1) and incubated under aerobic conditions as described in Example 1. […] In a 96-well microtiter plate with a lid, 150 microliters of each 10% solution was introduced into the first and second columns of the wells. Using a multi-channel pipette, 150 microliters of urine:TSB mixture was introduced into each well except the first column. Beginning at the second column of wells, serial dilutions were made by removing 150 microliters from the second column and transferring it to the third column. The mixture was mixed by pipetting up and down three times. The serial dilutions continued across each column of the plate and, after column 11, 150 microliters was discarded leaving column 12 as the 0% solution. Each well was then inoculated with 1 microliter of Proteus mirabilis, except for the negative control rows. One to three drops of anti-fogging solution was place on the plate lids with a cotton applicator, and allowed to air dry. The mixtures were incubated for 48 hours at 37° C. under aerobic conditions. After incubation of the samples, each was analyzed for bacterial cell growth utilizing the optical density procedure as set forth in Example 1."}, "[1]": {"system": "Proteus mirabilis (ATCC 29906)", "test": "Bacterial yield of facultatively grown Proteus mirabilis in urine:TSB (from optical density)", "conditions": "Table 7; 10% (w/v) mannitol; facultative", "method": "Proteus mirabilis (ATCC 29906) were recovered from frozen state by growing the appropriate bacterial coated MicroBank Bead (Pro Lab, Austin Tex.) in 10 mL trypticase soy broth (TSB, Difco, Ann Arbor, Mich.) in a 15 mL sterile loosely tightened screw capped conical tube overnight at 37° C. The tube was held stationary. (E. coli (ATCC 8739), utilized in Example 6 herein, was recovered using the same procedure described herein for Proteus mirabilis). Upon observation of turbidity, the bacterial suspension was checked for purity by isolation plate and Gram stain. Once determined that the isolate was Proteus mirabilis (or E. coli in Example 6), a colony from the isolation plate was transferred to 10 mL of TSB in a 15 mL sterile screw capped conical tube and incubated overnight at 37° C. under facultative conditions. Samples of bacterial suspension resulting from this overnight TSB culture were used to initiate all experiments utilizing Proteus mirabilis bacteria (or E. coli in Example 6).\n(§1) Proteus mirabilis was taken from a TSB culture (described in (1) above) and grown under various conditions for use in the Examples. For bacteria to be grown under aerobic conditions, 50 microliters of Proteus mirabilis was taken from a TSB culture prepared as described above and inoculated into a 50 mL volume of a freshly made 9:1 (by volume) pooled adult female urine:TSB mixture into a 250 mL shake flask. This mixture was rotated at 250 rpm at 37° C. overnight to grow the bacteria. For bacteria to be grown under facultative conditions, 10 microliters of Proteus mirabilis was taken from a TSB culture prepared as described above and inoculated into a 10 mL volume of a freshly made 9:1 (by volume) pooled adult female urine:TSB mixture into a 15 mL tube. The tube was loosely fitted with a screw cap, and held stationary at 37° C. overnight to grow the bacteria. For bacteria to be grown under anaerobic conditions, 10 microliters of Proteus mirabilis was taken from a TSB culture prepared as described above and inoculated into a 10 mL volume of a freshly made 9:1 (by volume) pooled adult female urine:TSB mixture into a 15 mL conical tube. The tube was purged with nitrogen and a screw cap tightly closed, and then was held stationary overnight at 37° C. to grow the bacteria.\nIn this Example, five samples were prepared and analyzed to determine: (1) Bacterial Yield (CFU/mL) calculated from optical density; (3) Percent viability of EPIOCULAR; and (4) EPIOCULAR IL-8. The samples included: (1) Deionized Water; (2) A urine:TSB mixture (9:1 by volume) as described above; (3) A urine:TSB mixture containing Proteus mirabilis bacteria grown under aerobic conditions as described above; (4) A urine:TSB mixture containing Proteus mirabilis bacteria grown under facultative conditions as described above; and (5) A urine:TSB mixture containing Proteus mirabilis bacteria grown under anaerobic conditions as described above.\n(§2) In this Example, six different samples were prepared for analysis. The first sample comprised a urine:TSB mixture that was prepared in the same manner as that described in Example 1. […] The tube was loosely fitted with a screw cap, and held stationary at 37° C. overnight to grow the bacteria. […] The fifth sample comprising urine:TSB:Proteus mirabilis (facultatively grown) was prepared in the same manner as that described in Example 1."}, "[2]": {"system": "Proteus mirabilis (ATCC 29906)", "test": "Ammonia production by facultatively grown Proteus mirabilis in urine:TSB (ammonia probe)", "method": "as §1\nUpon completion of the respective incubation periods of the samples, optical density measurements of each sample were taken as described above and ammonia production of the growth solutions was measured using an ammonia combination probe (Beckman, Fullerton, Calif.) by record mV using an Orion pH meter (Orion, Boston, Mass.). Orion ammonia standards (Orion) were used to calibrate the instrument.\nas §2"}, "[3]": {"conditions": "Table 7, 10% (w/v) mannitol, facultative"}}}
{"compound": "OC[C@@H](O)[C@@H](O)[C@H](O)[C@H](O)CO", "note": "[Mannitol, mannitol, reference compound]", "values": [{"measurement": "optical density (bacterial cell growth)", "setting": "Proteus mirabilis; 0.0097% in urine:TSB", "result": 0.98}, {"measurement": "optical density (bacterial cell growth)", "setting": "Proteus mirabilis; 0.0195% in urine:TSB", "result": 0.98}, {"measurement": "optical density (bacterial cell growth)", "setting": "Proteus mirabilis; 0.0391% in urine:TSB", "result": 0.97}, {"measurement": "optical density (bacterial cell growth)", "setting": "Proteus mirabilis; 0.0785% in urine:TSB", "result": 0.97}, {"measurement": "optical density (bacterial cell growth)", "setting": "Proteus mirabilis; 0.156% in urine:TSB", "result": 0.92}, {"measurement": "optical density (bacterial cell growth)", "setting": "Proteus mirabilis; 0.313% in urine:TSB", "result": 0.92}, {"measurement": "optical density (bacterial cell growth)", "setting": "Proteus mirabilis; 0.625% in urine:TSB", "result": 0.98}, {"measurement": "optical density (bacterial cell growth)", "setting": "Proteus mirabilis; 1.25% in urine:TSB", "result": 1.02}, {"measurement": "optical density (bacterial cell growth)", "setting": "Proteus mirabilis; 2.5% in urine:TSB", "result": 0.99}, {"measurement": "optical density (bacterial cell growth)", "setting": "Proteus mirabilis; 5% in urine:TSB", "result": 0.89}, {"measurement": "optical density (bacterial cell growth)", "setting": "Proteus mirabilis; 10% in urine:TSB", "result": 0.87}, {"measurement": "effect on cell growth", "setting": "Proteus mirabilis; at elevate concentrations", "result": "little, if any, effect on cell growth"}, {"measurement": "effect on cell growth", "setting": "Proteus mirabilis; at low concentrations", "result": "no effect on cell growth"}, {"measurement": "Bacterial Yields", "setting": "[1]", "result": "6.91E+8", "unit": "CFU/mL"}, {"measurement": "Ammonia Produced (n = 3)", "setting": "[2]; [3]", "result": "621.6 ± 1.8", "unit": "ppm"}, {"measurement": "Ammonia/Cell", "setting": "[2]; [3]", "result": 83.8, "unit": "ppm/10E8CFU"}, {"measurement": "impact on the production of ammonia in the bacteria", "setting": "[2]; mannitol in the absence of hydrogen peroxide, 10% (w/v)", "result": "does not significantly impact the production of ammonia"}]}
{"compound": "mannitol peroxide [3 Hr.]", "values": [{"measurement": "optical density (bacterial cell growth)", "setting": "Proteus mirabilis; 0.0097% in urine:TSB", "result": 0.98}, {"measurement": "optical density (bacterial cell growth)", "setting": "Proteus mirabilis; 0.0195% in urine:TSB", "result": 0.94}, {"measurement": "optical density (bacterial cell growth)", "setting": "Proteus mirabilis; 0.0391% in urine:TSB", "result": 0.94}, {"measurement": "optical density (bacterial cell growth)", "setting": "Proteus mirabilis; 0.0785% in urine:TSB", "result": 0.97}, {"measurement": "optical density (bacterial cell growth)", "setting": "Proteus mirabilis; 0.156% in urine:TSB", "result": 0.99}, {"measurement": "optical density (bacterial cell growth)", "setting": "Proteus mirabilis; 0.313% in urine:TSB", "result": 0.83}, {"measurement": "optical density (bacterial cell growth)", "setting": "Proteus mirabilis; 0.625% in urine:TSB", "result": 0.99}, {"measurement": "optical density (bacterial cell growth)", "setting": "Proteus mirabilis; 1.25% in urine:TSB", "result": 0.04}, {"measurement": "optical density (bacterial cell growth)", "setting": "Proteus mirabilis; 2.5% in urine:TSB", "result": 0.03}, {"measurement": "optical density (bacterial cell growth)", "setting": "Proteus mirabilis; 5% in urine:TSB", "result": 0.03}, {"measurement": "optical density (bacterial cell growth)", "setting": "Proteus mirabilis; 10% in urine:TSB", "result": 0.03}]}
{"compound": "mannitol peroxide [24 Hr.]", "values": [{"measurement": "optical density (bacterial cell growth)", "setting": "Proteus mirabilis; 0.0097% in urine:TSB", "result": 0.99}, {"measurement": "optical density (bacterial cell growth)", "setting": "Proteus mirabilis; 0.0195% in urine:TSB", "result": 0.98}, {"measurement": "optical density (bacterial cell growth)", "setting": "Proteus mirabilis; 0.0391% in urine:TSB", "result": 0.99}, {"measurement": "optical density (bacterial cell growth)", "setting": "Proteus mirabilis; 0.0785% in urine:TSB", "result": 0.97}, {"measurement": "optical density (bacterial cell growth)", "setting": "Proteus mirabilis; 0.156% in urine:TSB", "result": 0.97}, {"measurement": "optical density (bacterial cell growth)", "setting": "Proteus mirabilis; 0.313% in urine:TSB", "result": 0.97}, {"measurement": "optical density (bacterial cell growth)", "setting": "Proteus mirabilis; 0.625% in urine:TSB", "result": 0.96}, {"measurement": "optical density (bacterial cell growth)", "setting": "Proteus mirabilis; 1.25% in urine:TSB", "result": 0.95}, {"measurement": "optical density (bacterial cell growth)", "setting": "Proteus mirabilis; 2.5% in urine:TSB", "result": 0.93}, {"measurement": "optical density (bacterial cell growth)", "setting": "Proteus mirabilis; 5% in urine:TSB", "result": 0.88}, {"measurement": "optical density (bacterial cell growth)", "setting": "Proteus mirabilis; 10% in urine:TSB", "result": 0.80}]}
{"compound": "mannitol peroxide [4.5 Hr.]", "values": [{"measurement": "optical density (bacterial cell growth)", "setting": "Proteus mirabilis; 0.0097% in urine:TSB", "result": 0.97}, {"measurement": "optical density (bacterial cell growth)", "setting": "Proteus mirabilis; 0.0195% in urine:TSB", "result": 0.98}, {"measurement": "optical density (bacterial cell growth)", "setting": "Proteus mirabilis; 0.0391% in urine:TSB", "result": 0.99}, {"measurement": "optical density (bacterial cell growth)", "setting": "Proteus mirabilis; 0.0785% in urine:TSB", "result": 0.99}, {"measurement": "optical density (bacterial cell growth)", "setting": "Proteus mirabilis; 0.156% in urine:TSB", "result": 0.98}, {"measurement": "optical density (bacterial cell growth)", "setting": "Proteus mirabilis; 0.313% in urine:TSB", "result": 0.99}, {"measurement": "optical density (bacterial cell growth)", "setting": "Proteus mirabilis; 0.625% in urine:TSB", "result": 0.93}, {"measurement": "optical density (bacterial cell growth)", "setting": "Proteus mirabilis; 1.25% in urine:TSB", "result": 0.99}, {"measurement": "optical density (bacterial cell growth)", "setting": "Proteus mirabilis; 2.5% in urine:TSB", "result": 0.97}, {"measurement": "optical density (bacterial cell growth)", "setting": "Proteus mirabilis; 5% in urine:TSB", "result": 0.87}, {"measurement": "optical density (bacterial cell growth)", "setting": "Proteus mirabilis; 10% in urine:TSB", "result": 0.04}]}
